Assay results from ChEMBL document CHEMBL1154297, “Inhibitor profiling of the Pseudomonas aeruginosa virulence factor LasB using N-alpha mercaptoamide template-based inhibitors” (Bioorg Med Chem Lett, 2009).

Biological target: Elastase (Pseudomonas aeruginosa (strain ATCC 15692 / PAO1 / 1C / PRS 101 / LMG12228), UniProt P14756)
Experiment: Inhibition of Pseudomonas aeruginosa LasB by fluorimetric assay in buffer of pH 7.2
Settings: read-out: Ki

Sequence of Elastase (P14756 whole entry): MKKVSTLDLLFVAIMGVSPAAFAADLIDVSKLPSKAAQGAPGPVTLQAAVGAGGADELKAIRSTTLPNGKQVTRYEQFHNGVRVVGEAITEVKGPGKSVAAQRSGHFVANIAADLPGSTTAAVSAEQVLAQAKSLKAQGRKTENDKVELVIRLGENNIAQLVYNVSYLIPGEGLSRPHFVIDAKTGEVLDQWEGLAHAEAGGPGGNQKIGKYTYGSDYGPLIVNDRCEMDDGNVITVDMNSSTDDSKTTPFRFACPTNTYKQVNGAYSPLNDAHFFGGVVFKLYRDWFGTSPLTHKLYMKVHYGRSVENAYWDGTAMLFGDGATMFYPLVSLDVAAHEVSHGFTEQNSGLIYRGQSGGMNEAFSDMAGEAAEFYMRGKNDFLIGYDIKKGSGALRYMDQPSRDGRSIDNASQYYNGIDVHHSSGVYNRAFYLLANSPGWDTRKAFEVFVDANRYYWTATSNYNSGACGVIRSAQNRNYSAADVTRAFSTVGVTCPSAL

SMILES | Ki [µM]
NCCCC[C@H](NC(=O)CNC(=O)CS)C(N)=O | 451
CC(C)C[C@H](NC(=O)CNC(=O)CS)C(N)=O | 138
CC(C)[C@H](NC(=O)CNC(=O)CS)C(N)=O | 457
NC(=O)[C@H](CC(=O)O)NC(=O)[C@H](Cc1ccc(O)cc1)NC(=O)CS | 5.5
C[C@@H](O)[C@H](NC(=O)CS)C(=O)N[C@@H](CCCN=C(N)N)C(N)=O | 616
C[C@@H](O)[C@H](NC(=O)CS)C(=O)N[C@@H](Cc1ccccc1)C(N)=O | 225
C[C@@H](O)[C@H](NC(=O)CS)C(=O)N[C@@H](Cc1c[nH]c2ccccc12)C(N)=O | 65
NC(=O)[C@H](Cc1ccccc1)NC(=O)[C@H](Cc1ccc(O)cc1)NC(=O)CS | 6.5
NC(=O)[C@H](Cc1c[nH]c2ccccc12)NC(=O)[C@H](Cc1ccc(O)cc1)NC(=O)CS | 14
CC(C)[C@H](NC(=O)CS)C(=O)N[C@@H](CCCCN)C(N)=O | 22
CC(C)[C@H](NC(=O)CS)C(=O)N[C@@H](CCCN=C(N)N)C(N)=O | 69
CC(C)[C@H](NC(=O)CS)C(=O)N[C@@H](Cc1ccccc1)C(N)=O | 72
CC(C)[C@H](NC(=O)[C@@H](NC(=O)CS)C(C)C)C(N)=O | 10
CC(C)[C@H](NC(=O)[C@@H](NC(=O)CS)[C@@H](C)O)C(N)=O | 377
NC(=O)[C@H](Cc1c[nH]c2ccccc12)NC(=O)[C@H](CC(=O)O)NC(=O)CS | 207
CC(C)C[C@H](NC(=O)[C@H](CC(=O)O)NC(=O)CS)C(N)=O | 118
CC(C)C[C@H](NC(=O)[C@@H](NC(=O)CS)C(C)C)C(N)=O | 69
NC(=O)[C@H](CCCN=C(N)N)NC(=O)CNC(=O)CS | 641
NCCCC[C@H](NC(=O)[C@H](CC(=O)O)NC(=O)CS)C(N)=O | 491
NC(=O)[C@H](CCCN=C(N)N)NC(=O)[C@H](CC(=O)O)NC(=O)CS | 551

SMILES | Ki [µM]
NC(=O)[C@H](Cc1ccccc1)NC(=O)CNC(=O)CS | 51
NC(=O)[C@H](Cc1c[nH]c2ccccc12)NC(=O)CNC(=O)CS | 122
NCCCC[C@H](NC(=O)[C@H](CCC(=O)O)NC(=O)CS)C(N)=O | 553
NC(=O)[C@H](Cc1ccccc1)NC(=O)[C@H](CCC(=O)O)NC(=O)CS | 146
N=C(N)NCCC[C@H](NC(=O)[C@H](CO)NC(=O)CS)C(N)=O | 444
NC(=O)[C@H](Cc1c[nH]c2ccccc12)NC(=O)[C@H](CCC(=O)O)NC(=O)CS | 704
CC(C)[C@H](NC(=O)[C@H](CCC(=O)O)NC(=O)CS)C(N)=O | 730
NC(=O)[C@H](Cc1ccccc1)NC(=O)[C@H](CO)NC(=O)CS | 75
CC(C)C[C@H](NC(=O)[C@H](CC(N)=O)NC(=O)CS)C(N)=O | 508
CC(C)[C@H](NC(=O)[C@H](Cc1ccc(O)cc1)NC(=O)CS)C(N)=O | 0.77
CC(C)C[C@H](NC(=O)[C@H](Cc1ccc(O)cc1)NC(=O)CS)C(N)=O | 33
NCCCC[C@H](NC(=O)[C@H](Cc1ccc(O)cc1)NC(=O)CS)C(N)=O | 8.5
NC(=O)[C@H](CCCN=C(N)N)NC(=O)[C@H](Cc1ccc(O)cc1)NC(=O)CS | 3
CC(C)[C@H](NC(=O)[C@H](CCC(N)=O)NC(=O)CS)C(N)=O | 937
CC(C)C[C@H](NC(=O)[C@H](CCC(N)=O)NC(=O)CS)C(N)=O | 540
CC(C)[C@H](NC(=O)[C@H](CO)NC(=O)CS)C(N)=O | 229
CC(C)C[C@H](NC(=O)[C@H](CO)NC(=O)CS)C(N)=O | 510
NCCCC[C@H](NC(=O)[C@H](CCC(N)=O)NC(=O)CS)C(N)=O | 380
NC(=O)CC[C@H](NC(=O)CS)C(=O)N[C@@H](CCCN=C(N)N)C(N)=O | 217
NC(=O)CC[C@H](NC(=O)CS)C(=O)N[C@@H](Cc1c[nH]c2ccccc12)C(N)=O | 91
